{
  "source": "patent US20100150999A1",
  "about": "“THERAPY OF CANCER BASED ON TARGETING ADAPTIVE, INNATE AND/OR […] OF THE IMMUNE RESPONSE” (priority 2006, published 2010)",
  "key": {"[1]": {"tested_on": "TC-1 cells expressing HPV16-E6 and HPV16-E7", "assay": "TC-1 tumor model in C57BL/6 mice (tumor growth, eradication, survival)", "assay_type": "in vivo", "settings": "for Effect on tumor growth: large TC-1 tumors, treated day 24/25", "procedure": "TC-1 cells expressing HPV16-E6 and HPV16-E7 proteins derived from primary mouse lung epithelial cells were obtained from the American Type Culture Collection (LGC Promochem, Molsheim, France) (14). EL4-E7 cells, a mouse lymphoma expressing HPV16-E7 (15). Cells were maintained in RPMI 1640 with GlutaMAX supplemented with 10% heat-inactivated fetal calf serum, 100 units/ml penicillin, 100 μg/ml streptomycin, 0.4 mg/ml geneticin and 5×10^−5 mol/l 2-mercaptoethanol (Life Technologies, Cergy-Pontoise, France).\nThirty μg of CpG ODNs or pU were diluted in 50 μl of Optimen medium (Gibco, Grand Island, N.Y., USA) and mixed with 60 μg of DOTAP (Roche, Mannheim, Germany) diluted in 100 μl of Optimen. The rest of the reagents were diluted in PBS before injection. Cyclophosphamide (CTX) (Sigma, Steinheim, Germany) and doxorubicin (DOX) (Calbiochem, La Jolla, Calif., USA) were diluted respectively in PBS and in sterile water before injection. The different antigenic formulations and adjuvants were injected simultaneously except chemotherapeutic agents that were given 24 h before vaccine. Intravenous administrations were performed by retroorbital injection in a volume of 200 μl, intratumoral administrations were done by injection in a volume of 50 μl and subcutaneous administration were performed in 200 μl.\nTumor growth data were analyzed by non-linear mixed effect models using Monolix software (http://www.math.u-psud.fr/˜lavielle/monolix/). Mean diameters of tumors over time were fitted using the model described in (17) and treatments were compared using the Likelihood Ratio test. Kaplan-Meier plots were used to analyzed survival, and a log rank test was used to examine statistical significance of differences in the survival curves using Prism software (GraphPad Software, Inc. San Diego, USA). Data from in vivo CTL and tetramer staining were compared by ANOVA followed by Dunnett posttest. p values less than 0.05 were considered to be statistically significant."}, "TC-1 cells": {"tested_on": "TC-1 cells", "settings": "RAG1-/- mice, 2.5 mg CTX i.p. day 24", "procedure": "Specific pathogen-free 5-week-old female C57BL/6 mice were purchased from Charles River (L'Arbresle, France) and were kept in the Pasteur Institute animal facilities under pathogen-free conditions with water and food ad libitum. C57BL/6-RAG1^−/− mice were obtained from the Jackson Laboratory, USA. Experiments involving animals were conducted according to the institutional guidelines for animal care.\nTumor cells lines (5×10^5 TC-1 cells or 4×10^6 EL4-E7 cells) were inoculated into the shaved left back of C57BL/6 mice in 200 μl volume of PBS."}, "[2]": {"tested_on": "regulatory T cells, myeloid cells, NK cells, tumor-specific CD8+ T cells", "assay": "Flow cytometric analysis of immune cells in spleen, draining lymph nodes and tumor after treatment", "assay_type": "in vivo, mice", "procedure": "FIG. 9. Changes in immune cells after tritherapy on day 25. […] Groups of mice were sacrificed before treatment (day 0), 24 hour after CTX alone (day 1) or on days 4, 7 or 11 after tritherapy administration. Spleen, tumor draining lymph nodes and tumor were excised, ground to prepare the cell suspensions, stained and analyzed by flow cytometry. Pooled data of two experiments are shown (n=4-6 mice). Bars represent mean values and the error bars correspond to standard error of the mean. *<0.05 **<0.01. A) Percentage of CD4^+ cells that express CD25 and FoxP3. B) Percentage of CD4^+ cells that are CD25^− and FoxP3^+. C) Percentage of CD4^+ cells that express FoxP3. D) Percentage of CD8^+ cells that are tetramer^+ and CD44^+. E) Percentage of CD11c+ cells. F) Percentage of CD11 b^+ cells. G) Percentage of GR1+ cells. H) Percentage of CD11 b^+ GR1+ positive cells.\nFIG. 11. Phenotype of myeloid cells induced by tritherapy and by tumor growth. […] Tritherapy treated mice received on day 24, 2.5 mg CTX i.p and 24 h later, 50 μg CyaA-E7 and 30 μg CpG-B/DOTAP. PBS treated mice received 200 μl of PBS on day 25. […] Spleens were excised, ground to prepare the cell suspensions, stained and analyzed by flow cytometry. […]\nFACScalibur (Becton Dickinson, Franklin Lakes, N.J., USA) was used for flow cytometry and events were analyzed with CELLQuest software (Becton Dickinson, Franklin Lakes, N.J., USA)."}},
  "data": [
    {"molecule": "polyinosinic-polycytidylic acid [PIC]", "values": [
      {"measurement": "Effect on tumor growth", "setting": "[1]", "result": "none of these TLR ligands administered alone had any effect on the tumor growth"}
    ]},
    {"molecule": "O=P1(N(CCCl)CCCl)NCCCO1", "note": "(stereo not shown) [CTX, Cyclophosphamide]", "values": [
      {"measurement": "Effect on tumor growth", "setting": "[1]", "result": "significantly delayed tumor growth"},
      {"measurement": "Effect on tumor growth", "setting": "[1]; listed as cyclophosphamide", "result": "transiently control tumor growth"},
      {"measurement": "Induction of tumor regression / complete eradication", "setting": "[1]; without CyaA-E7, treated day 24/25", "result": "not able to induce the complete eradication"},
      {"measurement": "Tumor growth delay", "setting": "TC-1 cells", "result": "not observed"},
      {"measurement": "Percentage of CD25+FoxP3+/CD4+ in tumor-infiltrated lymphocytes", "setting": "[2]; four days after administration, from around 50%", "result": "below 30%"},
      {"measurement": "Lymphodepletion", "setting": "[2]; spleen and lymph node, TC-1 tumor-bearing mice", "result": "transient lymphodepletion in spleen and lymph node that reverted by day 7"}
    ]}
  ]
}
